Laboratory results taken from patent publication US6828327B2, “Macroheterocylic compounds useful as kinase inhibitors” (Ortho-McNeil Pharmaceutical, Inc., priority 2000, dated 2004).

Columns and labels:
L6 muscle cells = assay: Cell-Based GSK 3-β Assay (glycogen content of L6 muscle cells); conditions: for 14C-Glucose Incorporation (dpm): L6 cells, 2 hours, 0.0 μM control Cpd 1 1640, Cpd 2 2078; for glycogen synthesis in L6 skeletal muscle cells: upon exposure to compound, result in words
Experimental: Glycogen content of L6 muscle cells was measured according to the method described in Berger and Hayes, Anal. Biochem., 1998, 261, 159-163.
Briefly, L6 cells were serum starved overnight in alpha-MEM containing 0.1%. On the following day, cells were washed three times with 300 μL KRPH buffer (150 mM NaCl, 5 mM KCl, 2.9 mM Na2HPO4, 1.25 mM MgSO4, 1.2 mM CaCl2, 10 mM HEPES, pH 7.4) and labeled with 200 μL alpha-MEM containing 5.5 mM ^14C-Glucose (0.1 μCi) in the presence of vehicle (DMSO) or compounds. After 2 hours, cells were washed three times with ice-cold PBS and glycogen was precipitated for 2 hours using ice-cold 66% EtOH. Precipitated glycogen was then washed three times with ice-cold 66% EtOH and ^14C-glycogen was quantified using a TopCount (Packard).
Compounds were tested in separate experiments at the dose levels shown. Where shown, the 0.0 μM dose was used as a control.

PKC α [1] = biological target: T1, PKC α (Homo sapiens, UniProt P17252); assay: Biotinylated Peptide Substrate Assay, PKC α; assay type: biochemical; conditions: 10 μM ATP; >10 = no 50% inhibition at highest dose tested
Experimental: Biotinylated peptide substrates were selected from the literature as appropriate for the enzyme being evaluated.
Assay conditions vary slightly for each protein kinase, for example, insulin receptor kinase requires 10 mM MnCl2 for activity and Calmodulin-dependent protein kinase requires calmodulin and 10 mM CaCl2. […] Enzyme was diluted in 50 mM Tris-HCl pH=8.0, 0.1% BSA and added to each well. The reaction was incubated for one hour at 30° C. in the presence of compound. After one hour the reaction mix was aspirated from the plate and the plate was washed with PBS containing 100 mM EDTA. The plate was read on a scintillation counter to determine ^33P-γ-ATP incorporated into the immobilized peptide. […] A maximum and minimum signal for the assay was determined on each plate.

PKC α [2] = biological target: T1, PKC α; assay: Protein Kinase C Scintillation Proximity Assay (SPA), PKC-α; assay type: biochemical; set-up: purchased PanVera, Madison Wis; host or cells: baculovirus expression vector; conditions: inhibition value, recombinant human isozyme, 1 μM ATP
Experimental: The binding activity of a compound for Protein Kinase C (PKC) was assessed using a homogeneous Scintillation Proximity Assay according to the procedure below.
The reaction was incubated for 15 min at 30° C. Reactions were terminated by the addition of streptavidin-coated SPA beads (Amersham) in a solution containing 1 mM EGTA, 10 mM EDTA and 100 μM ATP. Beads were allowed to settle overnight and the plates read in a Wallac MICROBETA scintillation counter (PerkinElmer Life sciences, Wellesley, Mass.).

Row | SMILES | 14C-Glucose Incorporation (dpm) (L6 muscle cells; dose 1 μM) | 14C-Glucose Incorporation (dpm) (L6 muscle cells; dose 3 μM) | 14C-Glucose Incorporation (dpm) (L6 muscle cells; dose 10 μM) | glycogen synthesis in L6 skeletal muscle cells (L6 muscle cells) | PKC α Kinase Assay (IC50 uM) (PKC α [1]) [µM] | IC50 (PKC α [2]) [µM]
1 | O=C1NC(=O)C2=C1c1cn(c3ncccc13)CCOCCOCCOCCn1cc2c2cccnc21 [Cpd 1] | 1898 | 1958 | 2426 | increased glycogen synthesis |  | 
2 | O=C1NC(=O)C2=C1c1cn(c3ncccc13)CCOCCOCCOCCOCCn1cc2c2cccnc21 [Cpd 2] | 2224 | 2518 | 2806 | increased glycogen synthesis |  | 
3 | O=C1NC(=O)C2=C1c1cn(c3ccccc13)CCOCCOCCn1cc2c2cccnc21 [Cpd 10] |  |  |  |  | >10 | 5.36
4 | O=C1NC(=O)C2=C1c1cn(c3ccccc13)CCOCCOCCOCCn1cc2c2cccnc21 [Cpd 11] |  |  |  |  | >10 | 1.21
